Data set [1] can be described thus: log P by HPLC on reversed-phase column (C 18), EEC Directive 79/831 Annex V.A8. The format is physicochemical. The following applies: HPLC on reversed-phase column (C 18); 40° C.; 0.1% aqueous formic acid and acetonitrile; linear gradient 10% to 90% acetonitrile. An outline of the steps: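 Gradient elution (10% to 90% acetonitrile, 0.1% aqueous formic acid) at 40° C; log P interpolated linearly between flanking alkan-2-one standards (3 to 16 carbons).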

In another data set the test system is Sphaerotheca fuliginea. Put plainly: In vivo preventive test on Sphaerotheca fuliginea (cucumber). The conditions noted are these: 500 ppm of active ingredient, evaluated 7 days after inoculation. The procedure:
Solvent: 49 parts by weight of N,N-dimethylformamide Emulsifier: 1 part by weight of Alkylarylpolyglycolether To produce a suitable preparation of active compound, 1 part by weight of active compound is mixed with the stated amounts of solvent and emulsifier, and the concentrate is diluted with water to the desired concentration. To test for preventive activity, young plants are sprayed with the preparation of active compound at the stated rate of application. One day after this treatment, the plants are inoculated with an aqueous spore suspension of Sphaerotheca fuliginea. Then the plants are placed in a greenhouse at approximately 23° C. and a relative atmospheric humidity of approximately 70%. The test is evaluated 7 days after the inoculation. 0% means an efficacy which corresponds to that of the untreated control, while an efficacy of 100% means that no disease is observed.

The next data set concerns Alternaria solani. The data set is described as follows: In vivo preventive test on Alternaria solani (tomato). The following applies: 500 ppm of active ingredient, evaluated 7 days after inoculation. The method in brief:
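Young tomato plants were sprayed preventively with compound in DMF/alkylarylpolyglycolether diluted in water, then inoculated one day later with A. solani spores. Incubation was 1 day at about 22 °C and 100% RH, then about 20 °C and 96% RH. Efficacy was scored 7 days after inoculation (0% = untreated control, 100% = no disease).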

In another data set the test system is Pyrenophora teres. The data set is described as follows: In vivo preventive test on Pyrenophora teres (barley). The following applies: 500 ppm of active ingredient, evaluated 7-9 days after inoculation. An outline of the steps:
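Young barley plants sprayed with compound in DMF/alkylaryl polyglycol ether emulsion; inoculated with P. teres spores one day later. 48 h at 22 °C, 100% humidity, then greenhouse ~20 °C, ~80% humidity; efficacy scored 7-9 days post-inoculation, 0% = untreated, 100% = no disease.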

Each structure is given as a SMILES string. Values joined by “and” are separate entries in the source; they are usually repeats but may differ in a detail not shown here. Equal entries are not always repeated.

For the compound `Cn1nc(C(F)F)c(C(=O)N2CCCCC2c2cccc(Cl)c2)c1F` (stereo not shown) [Example 48], the logP in data set [1] is on record as 3.39. The Efficacy with Sphaerotheca fuliginea, in the data set on Alternaria solani and with Pyrenophora teres was 100% in each case.

In data set [1], `Cn1nc(C(F)F)c(C(=S)N2CCCCC2c2cccc(Cl)c2)c1F` (stereo not shown) [Example 49] had a logP of 4.06. Further, the Efficacy was 98% with Sphaerotheca fuliginea, 100% with Alternaria solani and 100% in the data set on Pyrenophora teres.

The compound `Cn1nc(C(F)F)c(C(=O)N2CCCCC2c2ccc(Cl)cc2)c1F` (stereo not shown) [Example 56] had a logP in data set [1] of 3.46. Besides, the values for the Efficacy in the data set on Sphaerotheca fuliginea, in the data set on Alternaria solani and with Pyrenophora teres were 79%, 100% and 100%, respectively.

`Cn1nc(C(F)F)c(C(=S)N2CCCCC2c2ccc(Cl)cc2)c1F` (stereo not shown) [Example 57]: the logP in data set [1] was 4.16. Further, the Efficacy is listed as 70% with Sphaerotheca fuliginea, 100% with Alternaria solani and 100% with Pyrenophora teres.

Compound `COc1cc(OC)cc(C2CCCCN2C(=O)c2c(C)nn(C)c2F)c1` (stereo not shown) [Example 68] gave a logP in data set [1] of 2.56. For the same compound, the values for the Efficacy in the data set on Sphaerotheca fuliginea, in the data set on Alternaria solani and in the data set on Pyrenophora teres were 83%, 80% and 95%, respectively.

In data set [1], `Cn1nc(C(F)F)c(C(=O)N2CCCCC2c2ccc(Cl)cc2Cl)c1F` (stereo not shown) [Example 81] had a logP of 3.87. Also, the values for the Efficacy in the data set on Sphaerotheca fuliginea, in the data set on Alternaria solani and in the data set on Pyrenophora teres were 94%, 100% and 100%, respectively.

In the case of `CCc1nn(C)c(F)c1C(=O)N1CCCCC1c1cc(Cl)ccc1Cl` (stereo not shown) [Example 82], the logP in data set [1] is given as 3.67. The Efficacy with Sphaerotheca fuliginea is listed as 79%; in the data set with Alternaria solani, 95%; with Pyrenophora teres it was 90%.

For `Cn1nc(C(F)F)c(C(=O)N2CCCCC2c2ccccc2Br)c1F` (stereo not shown) [Example 91], the logP in data set [1] is 3.39. The results for the Efficacy with Sphaerotheca fuliginea, with Alternaria solani and in the data set with Pyrenophora teres were 95%, 100% and 100%, respectively.

Consider `Cn1nc(C(F)F)c(C(=S)N2CCCCC2c2ccccc2Br)c1F` (stereo not shown) [Example 92], for which the logP in data set [1] is recorded as 3.92. Moreover, the Efficacy with Sphaerotheca fuliginea was 100%; in the data set with Alternaria solani it was 95% and 100%; with Pyrenophora teres it was 100%.

Turning to `Cn1nc(C(F)F)c(C(=O)N2CCCCC2c2cccc(Br)c2)c1F` (stereo not shown) [Example 97], the lipophilicity (logP) in data set [1] came out at 3.51. For the same compound, the Efficacy with Sphaerotheca fuliginea is recorded as 96%; with Alternaria solani it was 100%; with Pyrenophora teres, 100%.

Regarding `Cn1nc(C(F)F)c(C(=S)N2CCCCC2c2cccc(Br)c2)c1F` (stereo not shown) [Example 98], the logP in data set [1] is 4.16. The Efficacy with Sphaerotheca fuliginea, in the data set on Alternaria solani and in the data set with Pyrenophora teres was 100% each time.

Consider `Cn1nc(C(F)F)c(C(=O)N2CCCCC2c2cccc(Oc3ccccc3)c2)c1F` (stereo not shown) [Example 115], for which the logP in data set [1] is listed as 3.99. For the same compound, the Efficacy with Sphaerotheca fuliginea is recorded as 95%; in the data set on Alternaria solani it was 100%; in the data set with Pyrenophora teres, 100%.

In turn, `Cn1nc(C(F)F)c(C(=O)N2CCCCC2c2ccc3ccccc3c2)c1F` (stereo not shown) [Example 122] had a lipophilicity (logP) in data set [1] of 3.69. For the same compound, the Efficacy with Sphaerotheca fuliginea worked out at 94%; with Alternaria solani, 100%; in the data set with Pyrenophora teres, 100%.

In data set [1], `Cn1nc(C(F)F)c(C(=S)N2CCCCC2c2ccc3ccccc3c2)c1F` (stereo not shown) [Example 123] yielded a log partition coefficient (logP) of 4.36. Further, the Efficacy in the data set on Sphaerotheca fuliginea was found to be 88%; in the data set on Alternaria solani, 90%; with Pyrenophora teres it was 100%.

The compound `CC(c1ccccc1)C1CCCCN1C(=O)c1c(C(F)F)nn(C)c1F` (stereo not shown) [Example 138] gave a logP in data set [1] of 3.39. Further, the Efficacy is reported as 98% with Sphaerotheca fuliginea, 100% in the data set with Alternaria solani and 100% with Pyrenophora teres.

With `CC(c1ccccc1)C1CCCCN1C(=S)c1c(C(F)F)nn(C)c1F` (stereo not shown) [Example 139], the logP in data set [1] was 4.14. For the same compound, the Efficacy in the data set with Sphaerotheca fuliginea is given as 95%; in the data set with Alternaria solani, 95%; in the data set with Pyrenophora teres it was 100%.

For the origin of these results see patent US9545105B2, “1-(heterocyclic carbonyl) piperidines” (BAYER INTELLECTUAL PROPERTY GMBH, priority 2010, dated 2017).
